Entries after “also recorded” stand apart in the source; their conditions may differ. Like-named read-outs stand apart in the source and are kept apart here.
Key:
ADIPOQ [1] = experiment: RT-PCR relative mRNA expression of ADIPOQ in differentiated 3T3-L1 cells; type: cell-based, Mouse; conditions: day 11
Experimental: (§1) 3T3-L1 pre-adipocytes were differentiated into mature adipocytes following the aforementioned differentiation protocol (vide infra). Briefly, pre-adipocytes were treated with either 10 ng/ml of insulin and/or hydroxynaphthoquinones (100 nM or 1 μΜ). The tested compounds were first dissolved in DMSO and subsequently in the culture medium, with the final concentration of DMSO not exceeding 0.1% v/v. The initial stock concentration was 50 mM. Cells treated with insulin were considered as positive control whereas untreated cells were included as vehicle control. On the 11th day of the differentiation process, cell differentiation was assessed and validated by oil red O staining, as described elsewhere ([Tsave et al., 2016]). Further validation of successful adipogenesis was also confirmed by the relative expression of closely related biomarkers PPAR-γ and adiponectin (ADIPOQ).
(§2) Total RNA was extracted from cells on the 11th day of the differentiation protocol, using TRItidy-G reagent. The concentration and purity (absorbance ratio 260/280) of the extracted RNA were measured with a NanoDrop™ 2000c spectrophotometer (Thermo Fisher Scientific, United States). Synthesis of cDNA was performed with the iScript cDNA synthesis kit according to manufacturer instructions. RT-PCR was run on Rotor Gene Q (Qiagen) using the iTaq Universal SYBR Green Supermix and appropriate reagents (Qiagen, United States).
(§3) Customized primers were used from Qiagen for adiponectin (Mm_Adipoq_1_SG, NM_009605, Q01048047), GAPDH (Mm Gapdh_3_SG, QT01658692) and mPPAR-γ forward 5′-GTCAGCGACTGGGACTTTTC-3′ and reverse 5′-CGAGGACATCCAAGACAACC-3’.

PPAR-γ [2] = experiment: RT-PCR relative mRNA expression of PPAR-γ in differentiated 3T3-L1 cells; type: cell-based, Mouse; conditions: day 11
Experimental: as §1, §2, §3

3T3-L1 pre-adipocytes [3] = experiment: Cell viability of undifferentiated 3T3-L1 cells (CellTiter-Glo); type: cell-based, Mouse; conditions: for IC50: Mus musculus, read-out: IC50 (cell viability); for inhibition of cell viability: 4 μM
Experimental: (§4) Mouse fibroblast 3T3-L1 preadipocytes were kindly donated by the Laboratory of Inorganic Chemistry, School of Chemical Engineering, Aristotle University of Thessaloniki (Thessaloniki, Greece) and cultured in 75 cm^2 cell culture flasks in high-glucose DMEM supplemented with 10% FBS, 100 units/mL penicillin and […] streptomycin at 37°C in 5% CO2 and standard humidity. Medium was changed three times per week, until cells reached confluence. Two days post-confluency (day 0), cells were induced to differentiate by treating them with a differentiation/induction medium containing DMEM supplemented with 0.5 mM IBMX, 1 μM DEX, […] of insulin, and 10% FBS. Three days later (day 3), the medium was replaced with DMEM containing 10% FBS and 1 μg/ml insulin for two more days, after which (day 5) the medium was changed to DMEM with 10% FBS. The medium was replaced every 2 days until cells were harvested on day 11 ([Tsave et al., 2018]).
(§5) Viability of undifferentiated 3T3-L1 cells upon treatment with various concentrations of the hydroxynaphthoquinones was assessed using CellTiter-Glo assay in opaque-walled 96-well plates. This method utilizes the luciferase reaction for quantifying adenosine triphosphate (ATP), which is an indicator of cellular metabolic activity. Through the luciferase reaction, luminescence is generated in proportion to the amount of available ATP. […] Briefly, cells were seeded in a 96-well plate at a density of 3.5 × 10^3 cells and a total volume of 100 μl per well. After 24 h incubation, cells were treated with different concentrations (10 nM–10 μΜ) of the hydroxynaphthoquinones for 24 and 48 h. After the respective incubation times, cells in each condition were treated with a volume of the reagent equal to the volume of cell culture medium present in each well. The luminescence was recorded with a Glomax 96 microplate luminometer (Promega Corporation, United States). Untreated cells served as control samples. Each assay was performed three times, with at least three replicates each.
(§6) All tested compounds were previously dissolved in DMSO. The final concentration of DMSO in each well was lower than 0.1%. To confirm that DMSO at that concentration was inert, a screening was performed at various concentrations (0.00002%–2%) and cell viability was assessed. Cell viability was expressed as the percentage of viability observed in each compound, compared to the untreated cells.

C. elegans N2 wild-type = experiment: C. elegans survival assay (nematocidal activity); type: in vivo, Caenorhabditis elegans; conditions: for % Survival after 10 days ±SD: N2 worms
Experimental: Caenorhabditis elegans wild-type var. Bristol N2, SS104 [glp-4 (bn2ts)] and Escherichia coli OP50 were provided by the Caenorhabditis Genetics Center (University of Minnesota, United States). Media and NGM agar plates have been prepared as described before ([Zwirchmayr et al., 2020]). OP50 were grown in LB medium for 8 h at 37°C, then harvested by centrifugation, washed twice with ddH2O and suspended in S-complete medium at 100 mg/ml. Worms were maintained on NGM agar plates inoculated with OP50. Synchronized cultures were prepared by egg-prep method ([Porta-de-la-Riva et al., 2012]) and experiments started at the […].
The survival assay was performed as described before: Briefly, a suspension of 5–18 synchronized L1 larvae (N2 wild-type) in S-complete medium were manually seeded into 96-well plates. OP50 at a concentration of 6 mg/ml was added immediately and worms were kept at 25°C. The following day, when all worms reached the L3 stage, the sterilizing-agent 5-Fluorodeoxyuridine (FUdR; 0.12 mM final; Sigma-Aldrich, F0503) was added to keep the population synchronized. The next day, samples were added in triplicate wells to the adult worm culture with DMSO as a carrier at a final concentration of 1%. The number of living worms in each well was counted on day 0, 3, 5, 7 and 10 of the treatment. The worms were oxygenized every 3 days and OP50 were added on day 5 of adulthood to prevent starvation. Results of three parallel experiments are presented as bar charts and are given as the mean survival rate of worms.

3T3-L1 pre-adipocytes [4] = experiment: Differentiation of 3T3-L1 cells, lipid quantification by Oil Red O staining; type: cell-based, Mouse; conditions: for lipid accumulation / lipid accumulation (formed lipids) / fold decrease in lipid accumulation: 1 μM, ORO stain, day 11; for lipid accumulation: absence of insulin; for lipid accumulation (formed lipids) / fold decrease in lipid accumulation: in the presence of insulin
Experimental: as §4, §1
3T3-L1 preadipocytes were seeded in 24-well plates at a density of 3.5 × 10^4 cells per well and differentiated as described above. On the 11th day, cells were washed three times with sterile PBS, fixed with formaldehyde 3.7%–4.0% for 20 min and stained with Oil Red O (ORO) solution for 10 min. Next, cells were washed with double distilled water (ddH2O) and stained lipids were observed and imaged under an inverted microscope, as described elsewhere ([Tsave et al., 2016]). The analysis and quantification of lipid accumulation—based on the amount of ORO dye—was performed by using ImageJ software (National Institutes of Health, United States). In brief, the RGB images with the stained lipids were converted to 8-bit grayscale (Image → Type → 8-bit). Next, a manual threshold was set (Image → Adjust → Threshold) for each sample and the stained areas were measured (Analyze → Measure) ([Mehlem et al., 2013]).

C. elegans = test system: C. elegans; parameters: method as in Hunt et al., 2011; conditions: 100 to 500 μM, applied to solid agar medium ref Hunt et al., 2011; cited from earlier work
[5] = Cell viability of undifferentiated 3T3-L1 cells (CellTiter-Glo); type: cell-based, Mouse; conditions: mouse; 0.01, 0.1, and 1 μM, 24 h; read-out: cell viability (% of untreated cells)
Experimental: as §4, §5, §6

3T3-L1 pre-adipocytes [6] = test system: 3T3-L1 pre-adipocytes; parameters: method as in Lee et al., 2010; Gwon et al., 2013; Ha et al., 2016; conditions: 0.5–2 μM ref Lee et al., 2010; Gwon et al., 2013; Ha et al., 2016; cited from earlier work
ADIPOQ [7] = test system: ADIPOQ; parameters: method as in Lee H.-Y. et al., 2009; conditions: 2 μM ref Lee H.-Y. et al., 2009; cited from earlier work
PPAR-γ [8] = test system: PPAR-γ; parameters: method as in Lee et al., 2010; Gwon et al., 2013; conditions: 0.5–2 μM ref Lee et al., 2010; Gwon et al., 2013; cited from earlier work
[9] = compound alone, absence of insulin

Molecule	lipid accumulation (3T3-L1 pre-adipocytes [4]) [%]	lipid accumulation (formed lipids) (3T3-L1 pre-adipocytes [4])	ADIPOQ mRNA expression, fold increase (ADIPOQ [1]; [9])	ADIPOQ mRNA expression, fold increase (ADIPOQ [1]; compound together with insulin)	PPAR-γ mRNA expression, fold increase (PPAR-γ [2]; compound together with insulin) [fold]	IC50 (3T3-L1 pre-adipocytes [3]; 3T3-L1 cells, 24 h) [nM]	other results
insulin: human recombinant insulin, positive control of differentiation [reference compound]							ADIPOQ mRNA expression, fold increase (ADIPOQ [1]; positive control sample (insulin)): 8.67 fold; PPAR-γ mRNA expression, fold increase (PPAR-γ [2]; positive control sample (insulin group)): 10.78 fold
CC(C)=CC[C@@H](OC(=O)C=C(C)C)C1=CC(=O)c2c(O)ccc(O)c2C1=O [DMAS, β,β-Dimethyl-acryl-shikonin]	15.65	9.24%	3.03 fold	3.24 fold	4.71		concentrations showing reduced cell viability (3T3-L1 pre-adipocytes [3]; mouse, 24 h): > 4 µM; % Survival after 10 days ±SD (C. elegans N2 wild-type; 15 μg/ml): 73.87 ± 1.61 %; % Survival after 10 days ±SD (C. elegans N2 wild-type; 60 μg/ml): 62.22 ± 17.36 %; PPAR-γ mRNA expression, fold increase (PPAR-γ [2]; [9]): 8.37 fold
CC(C)=CCCC1=CC(=O)c2c(O)ccc(O)c2C1=O [DS, Deoxy-shikonin]	1.78	exceeded 10%	strongest inhibition; also recorded: complete impediment of ADIPOQ expression	4.85 fold	5.08		concentrations showing reduced cell viability (3T3-L1 pre-adipocytes [3]; 24 h): > 4 µM
O=C1C=CC(=O)c2c(O)ccc(O)c21 [NAPH, Naphthazarin]	5.74	exceeded 10%	1.79 fold	2.13 fold	5.2		IC50 (3T3-L1 pre-adipocytes [3]; 3T3-L1, 24 h): < 3000 nM; % Survival after 10 days ±SD (C. elegans N2 wild-type; 15 μg/ml): 0.00 ± 0.00 %; worms surviving the first 3 days of treatment (C. elegans N2 wild-type; 15 μg/ml, day 3): 50%; % Survival after 10 days ±SD (C. elegans N2 wild-type; 60 μg/ml): 0.00 ± 0.00 %; nematodes dead at the third day of treatment (C. elegans N2 wild-type; 60 μg/ml, day 3): ~100%; effect on lifespan of C. elegans (C. elegans): extend the lifespan
CC(=O)O[C@H](CC=C(C)C)C1=CC(=O)c2c(O)ccc(O)c2C1=O [ACS, Acetyl-shikonin]							concentrations showing reduced cell viability (3T3-L1 pre-adipocytes [3]; 24 h): > 4 µM
CC(C)=CC[C@@H](OC(=O)CC(C)C)C1=CC(=O)c2c(O)ccc(O)c2C1=O [IVS, Isovaleryl-shikonin]						8660	concentrations showing reduced cell viability (3T3-L1 pre-adipocytes [3]; mouse, 24 h): > 4 µM
CC(C)=CC[C@H](O)C1=CC(=O)c2c(O)ccc(O)c2C1=O [A, Alkannin]	1.56		strongest inhibition	not showing any increase at all	0.20	< 3000	viability [5]: > 146%; inhibition of cell viability (3T3-L1 pre-adipocytes [3]; 24 h): more than 90%; fold decrease in lipid accumulation (3T3-L1 pre-adipocytes [4]): 37 fold; inhibition of the formation of lipids (3T3-L1 pre-adipocytes [4]; in the presence of insulin (Figure 4)): ~100%
CC(C)=CC[C@@H](OC(=O)CC(C)(C)O)C1=CC(=O)c2c(O)ccc(O)c2C1=O [β-hydroxy-isovaleryl-shikonin, reference compound]							effect on adipogenesis (3T3-L1 pre-adipocytes [6]): inhibit adipogenesis
CC(C)=CC[C@@H](O)C1=CC(=O)c2c(O)ccc(O)c2C1=O [S, Shikonin]	2.58		2.4 fold	< 1 fold	1.27	< 3000	effect on ADIPOQ expression (ADIPOQ [7]): strongly inhibit; viability [5]: > 146%; inhibition of cell viability (3T3-L1 pre-adipocytes [3]; 24 h): more than 90%; effect on adipogenesis (3T3-L1 pre-adipocytes [6]): inhibit adipogenesis; fold decrease in lipid accumulation (3T3-L1 pre-adipocytes [4]): 22 fold; effect on expression of PPAR-γ (PPAR-γ [8]): significantly inhibited

Reference: paper PMC9216188, “Expanding the Biological Properties of Alkannins and Shikonins: Their Impact on Adipogenesis and Life Expectancy in Nematodes” (Frontiers in Pharmacology, 2022)
